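Values below derive from 48-hour exposures of cells grown in 96-well plates, with endpoints linearly interpolated between the two concentrations bracketing the appropriate inhibition level. GI50 = concentration required for 50% inhibition of growth.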 The source made the active and inactive calls. Cut-off read from the data, not from the text of the source: active = GI50 up to about 1.1 µM and inactive = higher.

We go through 7 compounds from ChEMBL document CHEMBL1201862, “PubChem BioAssay data set” (2004).

Test systems include CCRF-CEM; OVCAR-3; Hs-578T; PC-3; BT-549; SK-MEL-28; A549; COLO 205; CAKI-1; SR; MDA-N; SNB-75; SF-295; HCT-116; U-251; 786-0; HOP-92; A498; SNB-19; EKVX.
What all share (test): NCI anticancer screen, dose series, 48 h

For the compound `O=C(CSc1nnc(-c2ccccn2)s1)N/N=C/c1ccc([N+](=O)[O-])cc1`, the GI50 in the assay on CCRF-CEM was > 100 µM (inactive); with OVCAR-3, > 100 µM (inactive); with Hs-578T it was 32.1 µM (inactive); in the assay on PC-3 it was 65.8 µM (inactive); with BT-549 it was 56.2 µM (inactive); in the assay with SK-MEL-28, > 100 µM (inactive). In addition, the GI50 in the assay on A549 is 58.5 µM (inactive); in the assay with COLO 205, > 100 µM (inactive); with CAKI-1, > 100 µM (inactive); with SR, > 100 µM (inactive); in the assay on MDA-N it was > 100 µM (inactive); in the assay with SNB-75 it was 2.86 µM (inactive). Further, the GI50 in the assay with SF-295 was 29.4 µM (inactive); in the assay with HCT-116, 55.7 µM (inactive); in the assay on U-251, 14.5 µM (inactive); in the assay with 786-0, 41.9 µM (inactive); in the assay on HOP-92, 16.3 µM (inactive); in the assay on A498 it was 31 µM (inactive). Besides, in the assay on SNB-19, the GI50 is 21.9 µM (inactive).

For the compound `O=C1C2CCCCC2C(=O)N1n1c(-c2ccccc2)n[nH]c1=O` (configuration not stated), the GI50 in the assay on EKVX, in the assay with CCRF-CEM, with OVCAR-3, in the assay on Hs-578T, in the assay with PC-3 and with BT-549 was > 100 µM (inactive) each time. For the same compound, the GI50 in the assay on A549, in the assay with COLO 205, in the assay on CAKI-1, with SR, in the assay with MDA-N and in the assay with SNB-75 was > 100 µM (inactive) throughout. The GI50 with SF-295, with HCT-116, in the assay on U-251, with 786-0, with HOP-92 and in the assay on A498 was > 100 µM (inactive) in each case. The GI50 in the assay on SNB-19 was > 100 µM (inactive).

Turning to `Cc1nc2cc([N+](=O)[O-])ccc2c(NCCCN(C)C)c1C`, the GI50 in the assay with CCRF-CEM was 28.9 µM (inactive); in the assay on OVCAR-3, 6.31 µM (inactive); with Hs-578T it was 20 µM (inactive); with PC-3, 4.71 µM (inactive); in the assay on BT-549 it was 11.8 µM (inactive); in the assay with SK-MEL-28 it was 50.5 µM (inactive). Moreover, the GI50 was 6.21 µM (inactive) in the assay with A549; 2.56 µM (inactive) in the assay with COLO 205; 20.3 µM (inactive) in the assay with CAKI-1; 4.45 µM (inactive) with SR; 14.8 µM (inactive) in the assay with MDA-N; 20.7 µM (inactive) in the assay on SNB-75. For the same compound, the GI50 with SF-295 is 17.3 µM (inactive); with HCT-116, 4.68 µM (inactive); in the assay with U-251 it was 18.8 µM (inactive); in the assay on 786-0, 10.4 µM (inactive); in the assay with HOP-92, 1.95 µM (inactive); in the assay with A498, 14.9 µM (inactive).

In the case of `COC(=O)C1=C(OC(=O)c2ccccc2)C(C(=O)OC)[C@]2(O)[C@@H](C(=O)OC)[C@H]1C[C@@H](c1ccccc1)[C@@H]2C(=O)OC` (some centres not stated), the GI50 was 34 µM (inactive) with EKVX; 0.716 µM (active) in the assay on CCRF-CEM; 10.8 µM (inactive) with OVCAR-3; 13.8 µM (inactive) with Hs-578T; 4.82 µM (inactive) in the assay on PC-3; 12.2 µM (inactive) with BT-549. Further, the GI50 in the assay with SK-MEL-28 was 12.2 µM (inactive); in the assay on A549, 9.18 µM (inactive); in the assay with COLO 205, 10.2 µM (inactive); with CAKI-1, 14.2 µM (inactive); in the assay with SR, 8.87 µM (inactive); in the assay with MDA-N, 1.95 µM (inactive). The GI50 in the assay on SF-295 is 5.82 µM (inactive); in the assay on HCT-116 it was 3.96 µM (inactive); in the assay with U-251, 5.24 µM (inactive); in the assay with 786-0 it was 16.4 µM (inactive); in the assay on HOP-92, 2.82 µM (inactive); in the assay with A498 it was 16.3 µM (inactive). Moreover, the GI50 in the assay on SNB-19 was 10.7 µM (inactive).

For `Cc1ncc([N+](=O)[O-])n1CCNS(=O)(=O)CCCn1ncnc1[N+](=O)[O-]`, the GI50 with EKVX, in the assay with CCRF-CEM, in the assay with OVCAR-3, in the assay with Hs-578T, with PC-3 and in the assay on BT-549 was > 100 µM (inactive) throughout. Moreover, the GI50 in the assay with SK-MEL-28, in the assay on A549, in the assay with COLO 205, in the assay on CAKI-1, with SR and in the assay on MDA-N was > 100 µM (inactive) throughout. Further, the GI50 with SNB-75, in the assay on SF-295, in the assay on HCT-116, with U-251, in the assay with 786-0 and in the assay with HOP-92 was > 100 µM (inactive) in each case. Besides, in the assay with A498, the GI50 is > 100 µM (inactive).

For the compound `CCC(=O)c1ccc2[nH]c3c(C)c4c(O)cc(C)nc4c(C)c3c2c1`, the GI50 in the assay on EKVX, with CCRF-CEM, with Hs-578T, with PC-3, in the assay on BT-549 and in the assay on SK-MEL-28 was > 100 µM (inactive) throughout. Also, the GI50 is > 100 µM (inactive) in the assay on A549; > 100 µM (inactive) in the assay on COLO 205; > 100 µM (inactive) in the assay with CAKI-1; 40.6 µM (inactive) in the assay with SR; > 100 µM (inactive) with MDA-N; > 100 µM (inactive) with SNB-75. In addition, the GI50 is > 100 µM (inactive) with SF-295; > 100 µM (inactive) with HCT-116; 42.6 µM (inactive) with U-251; > 100 µM (inactive) with 786-0; 4.3 µM (inactive) in the assay with HOP-92; > 100 µM (inactive) with A498. In addition, the GI50 in the assay on SNB-19 was > 100 µM (inactive).

As to `COc1ccc(C2=C(N)c3ncccc3C2=O)cc1`, the GI50 with EKVX is 45 µM (inactive); with CCRF-CEM, > 100 µM (inactive); in the assay with OVCAR-3, 91.2 µM (inactive); with Hs-578T it was 18.9 µM (inactive); in the assay on PC-3 it was > 100 µM (inactive); in the assay on BT-549, > 100 µM (inactive). For the same compound, the GI50 with SK-MEL-28 is > 100 µM (inactive); in the assay on COLO 205, 72.6 µM (inactive); in the assay on CAKI-1, > 100 µM (inactive); in the assay with SR it was 69.7 µM (inactive); in the assay on MDA-N it was > 100 µM (inactive); with SNB-75, > 100 µM (inactive). Moreover, the GI50 with SF-295 was > 100 µM (inactive); in the assay on HCT-116 it was > 100 µM (inactive); with U-251, > 100 µM (inactive); in the assay with 786-0, > 100 µM (inactive); in the assay with HOP-92 it was > 10 µM (inactive); in the assay on A498 it was > 100 µM (inactive). Further, the GI50 with SNB-19 is > 100 µM (inactive).
